Laboratory results from paper PMC4735769 (Cancer Medicine, 2015).
pIC50: −log10 of the molar value.

Experiments:
pediatric patients = conditions: phase I single-agent pediatric trial; cited from earlier work
[1] = sorafenib plasma pharmacokinetics (LC-MS/MS, noncompartmental); format: in vivo, human
Protocol: Plasma samples were analyzed by protein precipitation. Calibration curves, linear from 5 to 2500 ng/mL with an R ^2 of >0.99, were generated for each run, with patient sample concentrations back‐calculated from the corresponding regression line.
(§1) Plasma concentration‐time data for both drugs were analyzed by noncompartmental methods using Phoenix WinNonlin 6.3 (Pharsight Corp., Mountain View, CA).

[2] = test system: pediatric preclinical cell models; conditions: read-out: median IC50; cited from earlier work
[3] = test system: pediatric patients with relapsed solid tumors; assay: phase I dose escalation of oral sorafenib and topotecan: toxicity, DLT, MTD; conditions: osteosarcoma patient with prior doxorubicin 450 mg/m^2, on digoxin and lisinopril; cycle 2
Protocol: Intra‐patient dose escalation was not allowed on this study. […] Total daily dose for patients was rounded to the nearest 50 mg tablet size based on patient BSA (a dosing nomogram was used to minimize inter‐patient dosing variability). Patients ingested tablets with clear liquids (2–4 ounces for children <12 and 4 ounces for ≥12 years) and while dispersion in liquid was allowed, all patients swallowed tablets.
The capsules could not be chewed, crushed, or divided and were swallowed whole. […] Vials were dispensed in light protective bags and kept refrigerated. The reconstituted formulation was drawn up in oral syringes to the prescribed volume and administered to the patient immediately after reconstitution.
This dose‐escalation study used a standard 3 + 3 design, with up to six patients being enrolled on a DL. Enrollment to subsequent DLs was determined by the number of enrolled patients, the number with DLTs, and the number at risk for DLTs.
Toxicity was graded according to the Common Terminology Criteria for Adverse Events version 4.0 (http://ctep.cancer.gov). […]

[4] = topotecan plasma pharmacokinetics, total and lactone (HPLC fluorescence, noncompartmental); conditions: for T min: total topotecan
Protocol: The calibration curve was linear from 0.125 to 50 ng/mL, with the regression meeting acceptable criteria, with patient samples calculated as described above.
as §1

[5] = Cycle 1, day 28, 150 mg/m^2 (n = 8), steady state, sorafenib alone
[6] = Cycle 1, day 28, 200 mg/m^2 (n = 1), steady state, sorafenib alone
[7] = Cycle 2, day 1, 150 mg/m^2 (n = 6), steady state, with topotecan
[8] = Cycle 2, day 1, 200 mg/m^2 (n = 1), steady state, with topotecan

CNC(=O)c1cc(Oc2ccc(NC(=O)Nc3ccc(Cl)c(C(F)(F)F)c3)cc2)ccn1 [Sorafenib]
dose-limiting toxicities (DLTs) (pediatric patients): rash and hypertension
C avg [1, 5]: 5400 ± 2600 ng/mL
C max [1, 5]: 6800 ± 3500 ng/mL
C min [1, 5]: 2900 ± 2500 ng/mL
T max [1, 5]: 4.0 ± 3.3 h
T min [1, 5]: 4.6 ± 3.4 h
C avg [1, 6]: 7600 ng/mL
C min [1, 6]: 4900 ng/mL
T max [1, 6]: 3 h
T min [1, 6]: 8 h
C avg [1, 7]: 4500 ± 3800 ng/mL
C min [1, 7]: 3100 ± 2800 ng/mL
T min [1, 7]: 4.3 ± 2.7 h
C avg [1, 8]: 9800 ng/mL
C min [1, 8]: 6700 ng/mL
T min [1, 8]: 5 h
dose-normalized AUC, exposure to sorafenib with vs without topotecan ([1]; cycle 1 day 28 vs cycle 2 day 1, all dose levels): comparable amounts of exposure
pIC50 [2]: 5.37
left ventricular ejection fraction on restart of sorafenib [3]: ejection fraction again fell to grade 3

CC[C@@]1(O)C(=O)OCc2c1cc1n(c2=O)Cc2cc3c(CN(C)C)c(O)ccc3nc2-1 [Topotecan]
drug–drug interaction, topotecan PK profiles in presence and absence of sorafenib ([4]; cycle 1 day 1 vs cycle 2 day 1): no apparent drug–drug interaction
T min ([4]; Cycle 1 Day 1 – 1.0 mg/m^2 (n = 3), without sorafenib): 4.7 (±1.1) h
T min ([4]; Cycle 2 Day 1 – 1.0 mg/m^2 (n = 3), sorafenib at steady state): 9.2 (±3.6) h
